Key:
extrinsic pathway = assay: Plasma coagulation: prothrombin time (PT); set-up: species or system Human; settings: 37° C., 30 minutes, 0.16-40 μg/mL
Method: (§1) The impact of nanoemulsion formulations on plasma coagulation was also assessed. Human blood from three donors was collected by venepuncture into tubes anti-coagulated with sodium citrate; blood was used within one hour of collection. Test plasma was prepared by centrifuging blood at 2500×g, at 21° C., for 10 minutes with the resultant plasma collected and pooled. Pooled plasma was stable at room temperature for 8 hours. Nanoemulsion samples were prepared at 10× the required final concentration to accommodate dilution when added to test plasma. Concentrations and subsequent dilutions were based on the concentration of Efavirenz contained within the samples with dilutions of blank nanoemulsion diluted in the same fashion. Final concentrations tested were 40 μg/mL, 4 μg/mL, 0.8 μg/mL and 0.16 μg/mL. […]
(§2) Cuvettes were placed into A, B, C and D test rows on the coagulometer and one metal ball added into each cuvette (warmed for at least 3 minutes prior to use). […] Once incubation time was complete coagulation reagent was added to each cuvette and coagulation time recorded. Percentage coefficient of variation was calculated for each control and test samples according to the following formula: % CV=SD/Mean×100%. […] Data was expressed as a percentage of the coagulation time recorded for plasma with no nanomaterial present (plasma only control).

[1] = Transcellular permeation assay (Caco-2 transwell); assay type: in vitro ADME; settings: human
Method: (§3) Caco-2 cells were seeded at a density of 35,000 cells per well in the apical chamber of a 24 well Corning® HTS® transwell plate, and left to adhere for 24 hours. After this time, culture media was replenished by removal with an aspirator, also removing those cells that had not adhered. Culture media used was DMEM supplemented with 15% fetal bovine serum, which was continually replenished every other day for a three-week period.
(§4) In different wells the apical or basolateral chambers (donor chambers) were loaded with drug or nanoemulsion containing media, with the opposite chambers (acceptor chambers) of those wells being filled with fresh drug-free media. Samples were taken from both apical and basolateral chambers from all wells at 1, 2, and 24 hour time periods. Samples were then immediately frozen at −40° C. for subsequent batch analysis via high performance liquid chromatography to determine the concentration of the drug in the sample.
(§5) The apparent permeability (Papp) was calculated using the following equation: Papp=((A/T)*(V))/(S*0.3).
(§6) Where A is the concentration in the sample, T is the time in seconds at which the sample was collected, V is the total volume of sample contained in the chamber being sampled, S is the initial starting concentration of the drug and 0.3 is the surface area in cm^2 of the transwell insert on which the Caco-2 cells are grown.

Caco-2 cells = assay: Transcellular permeation assay (Caco-2 transwell); assay type: in vitro ADME; settings: 10 μM
Method: as §3, §4, §5, §6

final common pathway = assay: Plasma coagulation: thrombin time (TT); set-up: species or system Human; settings: 37° C., 30 minutes, 0.16-40 μg/mL
Method: as §1, §2

intrinsic pathway = assay: Plasma coagulation: activated partial thromboplastin time (APTT); set-up: species or system Human
Method: as §1, §2

[2] = Solubility of drug in castor oil; assay type: physicochemical
Method: Non-limiting examples of some suitable drugs include for example the antiretroviral drugs Lopinavir (LPV) and Efavirenz (EFV), and the antibiotics Rifampicin and Erythromycin. Practically, approximately 50 mg/ml Efavirenz or 25 mg/ml Lopinavir can be dissolved in castor oil. Stock solutions of drug dissolved in castor oil were produced (50 mg/ml of Efavirenz in castor oil, or 25 mg/ml of Lopinavir in the same oil).

[3] = Caco-2, 2 hours, read-out: Papp apical to basolateral

O=C1Nc2ccc(Cl)cc2[C@@](C#CC2CC2)(C(F)(F)F)O1 [Efavirenz]
impact on prothrombin time (PT) (extrinsic pathway): No impact
Papp A→B at 2 h, 10 μM [1, 3]: 8.2 ×10⁻⁶ cm/s
Papp A→B at 24 h, 10 μM ([1]; Caco-2, 24 hours, read-out: Papp apical to basolateral): 0.7 ×10⁻⁶ cm/s
Papp basolateral to apical (Caco-2 cells; 1 hour): increased compared to EFV nanoemulsion
Papp basolateral to apical (Caco-2 cells; 2 hours): increased compared to EFV nanoemulsion
impact on thrombin time (TT) (final common pathway): No impact
impact on APTT coagulation time (intrinsic pathway): did not impact on coagulation time at all
amount that can be dissolved in castor oil [2]: approximately 50 mg/ml

Cc1cccc(C)c1OCC(=O)N[C@@H](Cc1ccccc1)[C@@H](O)C[C@H](Cc1ccccc1)NC(=O)[C@H](C(C)C)N1CCCNC1=O [Lopinavir]
Papp A→B at 1 h, 10 μM ([1]; Caco-2, 1 hour, read-out: Papp apical to basolateral): 8.4 ×10⁻⁶ cm/s
Papp B→A at 1 h, 10 μM ([1]; Caco-2, 1 hour, read-out: Papp basolateral to apical): 9.3 ×10⁻⁶ cm/s
Papp A→B at 2 h, 10 μM [1, 3]: 2.7 ×10⁻⁶ cm/s
Papp B→A at 2 h, 10 μM ([1]; Caco-2, 2 hours, read-out: Papp basolateral to apical): 13 ×10⁻⁶ cm/s
amount that can be dissolved in castor oil [2]: ~25 mg/mL

Reference: patent US10463618B2, “Nanoemulsions” (The University of Liverpool, priority 2015, dated 2019)
